Data from article PMC5458052 (Nature Communications, 2017).
Where “and” joins values, the source holds several entries; their conditions need not be identical. Identical values can stand only once. Entries after “also recorded” stand apart in the source; their conditions may differ.

Columns and labels:
[1] = tested on: P. falciparum strain 3D7^0087/N9; assay: Humanized SCID mouse model of P. falciparum; format: in vivo, Plasmodium falciparum
[2] = Rat blood stability in vitro; settings: male, Sprague Dawley, freshly collected whole blood
[3] = target: CYP2C9 (Homo sapiens, UniProt P11712); assay: Cytochrome P450 inhibition CYP2C9
Sequence of CYP2C9 (P11712 whole entry): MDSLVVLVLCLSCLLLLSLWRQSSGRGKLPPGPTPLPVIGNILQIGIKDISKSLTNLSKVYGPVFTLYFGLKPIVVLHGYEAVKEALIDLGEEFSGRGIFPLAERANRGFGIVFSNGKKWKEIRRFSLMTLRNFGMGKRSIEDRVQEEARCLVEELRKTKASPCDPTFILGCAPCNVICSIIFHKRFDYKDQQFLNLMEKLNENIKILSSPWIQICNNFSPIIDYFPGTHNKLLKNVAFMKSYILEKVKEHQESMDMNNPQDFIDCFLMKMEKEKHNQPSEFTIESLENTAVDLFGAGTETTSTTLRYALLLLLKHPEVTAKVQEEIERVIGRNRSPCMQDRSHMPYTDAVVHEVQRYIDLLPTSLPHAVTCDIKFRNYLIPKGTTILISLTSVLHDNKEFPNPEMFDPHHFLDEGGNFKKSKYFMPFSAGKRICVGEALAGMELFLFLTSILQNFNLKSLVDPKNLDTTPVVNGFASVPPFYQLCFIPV

[4] = target: T1, Sigma 1 receptors (Homo sapiens, UniProt Q99720); assay: CEREP radioligand binding screen, Sigma 1
T1 construct: CEREP
T1 sequence (Q99720 whole entry): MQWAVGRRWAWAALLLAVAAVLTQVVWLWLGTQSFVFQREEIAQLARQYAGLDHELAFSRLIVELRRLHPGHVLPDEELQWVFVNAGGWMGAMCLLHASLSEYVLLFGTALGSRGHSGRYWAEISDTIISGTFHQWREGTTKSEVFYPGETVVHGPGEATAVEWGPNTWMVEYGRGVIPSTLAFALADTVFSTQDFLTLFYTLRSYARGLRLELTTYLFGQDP

[5] = tested on: Late stage gametocytes; oocysts in Anopheles stephensi mosquitoes; assay: whole plant or invertebrate; format: cell-based
[6] = tested on: P. falciparum clinical field isolates; assay: microbe, parasite or virus in culture; format: cell-based; settings: Plasmodium falciparum, read-out: Median IC50
[7] = Metabolic stability and metabolite profile in human liver microsomes; settings: for Microsome-Predicted EH: human liver microsomes
[8] = in vivo; settings: rat, iv, 1 mg/kg
[9] = rat, in vivo

## FC1CCN(CCOc2ccc(C3CCC4(CC3)OOC3(OO4)C4CC5CC(C4)CC3C5)cc2)CC1 (stereo not drawn) [Compound E209]
[1]; single oral dose
  AUC ED90: 1.2 µg·h/mL
[1]; single oral dose 30 mg kg^−1
  parasite clearance: Complete parasite clearance; also recorded: maximum parasite clearance
[1]; single oral dose, calculated
  ED90: 11.6 mg/kg
[2]
  half-life at 1 µM: 780 min
[3]
  IC50: > 20 µM
[4]
  IC50: ~200 nM
[5]
  transmission-blocking activity (percentage of mosquitoes with no observed oocysts): ~60% and 90%
[5]; Anopheles stephensi, read-out: IC50 (reduction in oocyst mean intensity)
  IC50: 14.5 nM
[6]
  IC50: 15.7 nM
[7]; human liver microsomes with NADPH, 60 minutes
  % Substrate Consumed: 45%
[7]; substrate 1 µM
  Microsome-Predicted EH: 0.50
[7]; substrate 5 µM
  Microsome-Predicted EH: 0.48
[7]; human, liver microsomes
  half-life at 1 µM: 68 min
  half-life at 5 µM: 76 min
  microsomal CLint at 1 µM: 25 µL/min/mg
[8]
  half-life: 240 min
[9]
  finding at 100 mg kg^−1: body weight loss
  tolerability: not tolerated
